Bridge positions count the residues as written; N and C are the ends. Ends that are not written are not given here. I, II: the chains in the order shown.
B1: recombinant human Artemin (ARTN) (ligand, UniProt Q5T4W7 108-220, looked up)
chain: AGGPGSRARAAGARGCRLRSQLVPVRALGLGHRSDELVRFRFCSGSCRRARSPHDLSLASLLGAGALRPPPGSRPVSQPCCRPTRYEAVSFMDVNSTWRTVDRLSATACGCLG
notes: Artemin (ARTN), human, UniProt D3DPX9; source: bought: R&D Systems

Key:
[1] = system: cerebellar granule neurons (CGNs); experiment: Neurite outgrowth assay in CGNs; type: cell-based, Wistar rat; conditions: 24 h; for maximum level of neurite outgrowth: untreated control = 100%, mean of four independent experiments; for neurite outgrowth, single agent in competition assay: ARTN 2.1 nM alone or artefin 4.2 μM alone, paired t-test versus control; for overall neuritogenic effect: ARTN 0.013–2.1 nM, artefin 0.16–37.9 μM, one-way ANOVA
Method: (§1) Cerebellar granule neurons (CGNs) were prepared from 7-day-old Wistar rat pups (Charles River Laboratories, Sulzfeld, Germany) as previously described ([Schousboe et al., 1989]). Briefly, pups were decapitated, and the cerebellum was removed and cleared from blood vessels and meninges in ice-cold modified Krebs-Ringer buffer. The cerebellum was dissociated by chopping and trypsinization. Cells were washed in Krebs-Ringer buffer containing DNAse I (Sigma, St. Louis, MO, United States) and soybean trypsin inhibitor (Sigma) to stop trypsinization, and the remaining tissue pieces were pelleted by centrifugation. Cells were then washed in Krebs-Ringer buffer containing Ca^2+ and Mg^2+ and re-suspended in appropriate Neurobasal^TM medium (Invitrogen, Taastrup, Denmark) with supplements depending on the experiment.
Cerebellar granule neurons CGNs were re-suspended in Neurobasal^TM medium supplemented with 2% (v/v) B27, 0.5% (v/v) glutamax, 100 U/ml penicillin, 100 μg/ml streptomycin, 0.4% (w/v) BSA, and 20 mM HEPES and were seeded in 8-well LabTek Permanox chamber slides (Nunc) at a density of 1 × 10^4 cells/cm^2. Various concentrations of ARTN, artefin, scrambled artefin, or reversed artefin were added to neurons immediately after seeding. For the RET inhibition assay, the inhibitory goat anti-mouse RET antibody (4.1 μg/ml; R&D systems, Abingdon, United Kingdom) or control goat IgG (4.1 μg/ml; Santa Cruz Biotechnology, Dallas, TX, United States) were added to neurons 1 h before stimulation with ARTN (0.042 nM) […]. For the competition assay between growth factor and mimetic peptide, a combination of ARTN (2.1 nM) and artefin (4.2 μM) was added to the cells immediately after seeding. To inhibit Fibroblast growth factor receptor (FGFR) pharmacologically, inhibitor of FGFR, SU5402 (Sigma), was added to the growth medium in serial dilutions of 20, 40, and 80 μM immediately after plating of CGNs, followed by addition of either P2-d (8 μg/ml), ARTN (0.21 nM), or artefin (1.4 μM) 1 h after the plating.
(§2) To estimate neurite outgrowth, neurons were fixated 24 h after stimulation and stained with rabbit anti-growth-associated-protein-43 (GAP-43) antibody (Chemicon International, Inc., Temecula, CA, United States) or anti-GFP antibody (for transfection experiment) overnight at 4°C followed by incubation with secondary Alexa-conjugated goat anti-rabbit antibodies (Invitrogen, Taastrup, Denmark). In case of experiments with plasmid transfection, the transfection efficiency was ca. 20% of total cells and the neurite outgrowth was evaluated only in GFP-positive, i.e., transfected, cells. For representative pictures, cells were additionally co-stained with Hoechst 33258.
(§3) Computer-assisted fluorescent microscopy was performed using a Nikon Diaphot 300 inverted microscope (Nikon) equipped with a Nikon Plan 20× objective and coupled to a video camera (Grundig Electronics, Germany). For each condition in each experiment, including the experiment with transfections, images of approximately 200 cells were recorded in systematic series of fields of view, and neurite outgrowth was quantified using a stereological approach as previously described ([Rønn et al., 2000]).
FIGURE 3 Neurite outgrowth induced by ARTN (A), artefin-dendrimer (B), and artefin-monomer (C) in CGNs. Cells were stimulated with ARTN (0.013, 0.042, 0.13, 0.42, and 2.1 nM) or artefin (0.16, 0.47, 1.4, 4.2, 12.6, and 37.9 μM) for 24 h. For the unstimulated control, the absolute length of neurites was 11.47 ± 1.5 μm. Results from four independent experiments are expressed as percentage of untreated control set to 100% and presented as mean ± SEM. The mean neurite outgrowth lengths were compared using one-way ANOVA for repeated measurements. The effect of individual concentrations of ARTN and artefin was compared to control using one-way ANOVA with Dunnett’s post-hoc test, ^∗p < 0.05; ^∗∗p < 0.01. […]

[2] = system: NCAM; cerebellar granule neurons (CGNs); experiment: Neurite outgrowth in CGNs with NCAM knock down (NCAM shRNA); type: cell-based, Wistar rat; conditions: 24 h, P2-d 8 μg/ml, ARTN 0.21 nM, artefin 1.4 μM; for neurite outgrowth in NCAM knock down neurons: NCAM shRNA; for neurite outgrowth in mock-transfected neurons: empty vector, versus control
Method: as §1
To evaluate the involvement of NCAM and RET in neurite outgrowth induced by either ARTN or artefin, CGNs (3 × 10^6 per transfection) were transfected with 3 μg DNA using a Nucleofector^TM 2b device and a Rat Neuron Nucleofector Kit (Amaxa, Inc., Gaithersburg, MD, United States). A kinase-deleted dominant negative RET insert was obtained by direct PCR using a commercially available clone (IRAKp961P02132Q; RZPD, Berlin, Germany) encoding full-length mouse RET coding sequence 586–3807 nt. as template. The upper primer […] contained a NheI restriction site and Kozak sequence, and the lower primer […] encoded Streptag II and NotI restriction sites. The dominant negative RET insert and the pcDNA5/FRT expression vector containing the Flp-In system were cut with NheI and NotI restriction enzymes, purified, ligated using the Rapid DNA Ligation Kit (Roche, Basel, Switzerland), and transfected into One Shot TOP10 E. coli (Invitrogen, Taastrup, Denmark). E. coli colonies containing the dominant negative RET insert were identified by PCR, and one insert-positive colony was used for plasmid purification. The identity of the purified plasmid was verified by restriction cutting and sequencing of the insert. For NCAM knock down, we used a pENTR vector containing the shRNA expression cassette for NCAM knock down ([Hansen et al., 2007]). An empty vector was used as a control. To identify transfected neurons, all transfections were performed as co-transfections with 0.5 μg pEGFP-N1, an expression vector encoding the enhanced variant of green fluorescent protein (GFP; Clontech, Palo Alto, CA, United States). Transfected CGNs were seeded in Neurobasal^TM-A medium supplemented with 2% (v/v) B27, 5% (v/v) FCS, and 2 mM Glutamax at a density of 1 × 10^5 cells/cm^2.
as §2, §3
FIGURE 7 Neuritogenic effect of ARTN and artefin in (A) dominant negative RET or (B) knock down NCAM-expressing CGNs. […]

[3] = Circular dichroism spectroscopy; type: physicochemical; conditions: 10 μM, 10 mM NaH2PO4 pH 7.0, room temperature, tetrameric peptide
Method: Circular dichroism (CD) spectra were measured over the range 190–250 nm using a Jasco J-810 spectropolarimeter in cells with path length 1 mm at room temperature. The peptide was dissolved in 10 mM NaH2PO4 buffer, pH 7.0, to the final concentration 10 μM. Data were recorded at a scan speed of 20 nm/min with 10 repeat scans accumulated to obtain the final average spectra. Following the buffer subtraction, the observed ellipticity θ (mdeg) was converted to mean residue ellipticity [θ] (deg cm^2/dmol) using the following relationship [θ] = 100θ /(lcn) where ‘l’ is path length in centimeters, ‘c’ is the millimolar concentration, and ‘n’ is the number of residues in the peptide.

Molecule | concentration of maximum neurite outgrowth ([1]; artefin as dendrimer) | neurite outgrowth compared to ARTN ([1]; artefin dendrimer, higher length of neurites) | maximum level of neurite outgrowth ([1]; artefin as dendrimer) | neurite outgrowth, single agent in competition assay [1] | overall neuritogenic effect [1] | neurite outgrowth effect of artefin in the presence of ARTN ([1]; artefin 4.2 μM co-incubated with ARTN 2.1 nM, p < 0.001 versus artefin alone) | neurite outgrowth, sequence specificity ([1]; tetramers, 4.2 μM, paired t-test versus untreated control) | neurite outgrowth in NCAM knock down neurons [2] | neurite outgrowth in mock-transfected neurons [2] | far-UV CD bands ([3]; 190–250 nm) | secondary structure in solution (far-UV CD) [3] | concentration of maximum neurite outgrowth [1] | dose-response of neurite outgrowth ([1]; 0.013–2.1 nM)
I: RSPHDLSLASLLGAGKK-NH2 / II: RSPHDLSLASLLGAGK / III: RSPHDLSLASLLGAG / IV: RSPHDLSLASLLGAG (amide I:16-IV:C, I:17-II:C, II:16-III:C; C-terminus assumed) [artefin] | 4.2 µM | more effective (higher length of neurites) than ARTN | 404 % of control | significant increase in neurite outgrowth (p < 0.001) | statistically significant (F = 9.723, p < 0.0001) | eliminated | statistically significant increase in neurite length when compared to the control condition (p < 0.01) | abrogated in neurons where NCAM expression was knocked down (p < 0.001 | promoted the neurite outgrowth in mock-transfected neurons (p < 0.01) | negative band at 208 nm, a shoulder at 222 nm, and a positive band at 193 nm | a-helix confirmation is dominant | – | –
B1 | – | – | 210 % of control | equivalent to that of the control condition | statistically significant (F = 5.069, p < 0.01) | – | – | completely abolished the neurite outgrowth effect of ARTN | significantly higher level of neurite outgrowth compared to unstimulated controls (p < 0.05 | – | – | 4.2e-05 µM | bell-shaped dose-response manner
